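Cultured in 96-well plates, cells were exposed to test compound for 48 hours across five concentrations. Here, GI50 denotes the concentration required for 50% inhibition of growth. TGI marks complete inhibition of growth.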
Legend:
Experiment in all cases: growth of human tumour cells (NCI), 48 h
786-0 renal = system: 786-0 renal
A498 renal = system: A498 renal
A549 NSCLC = system: A549 NSCLC
ACHN renal = system: ACHN renal
BT-549 breast = system: BT-549 breast
CAKI-1 renal = system: CAKI-1 renal
CCRF-CEM leukemia = system: CCRF-CEM leukemia
COLO 205 colon = system: COLO 205 colon
DU-145 prostate = system: DU-145 prostate
EKVX NSCLC = system: EKVX NSCLC
HCC-2998 colon = system: HCC-2998 colon
HCT-116 colon = system: HCT-116 colon
HCT-15 colon = system: HCT-15 colon
HL-60(TB) leukemia = system: HL-60(TB) leukemia
HOP-62 NSCLC = system: HOP-62 NSCLC
HOP-92 NSCLC = system: HOP-92 NSCLC
HS 578T breast = system: HS 578T breast
HT29 colon = system: HT29 colon
IGROV1 ovarian = system: IGROV1 ovarian
K-562 leukemia = system: K-562 leukemia
KM12 colon = system: KM12 colon
LOX IMVI melanoma = system: LOX IMVI melanoma
M14 melanoma = system: M14 melanoma
MALME-3M melanoma = system: MALME-3M melanoma
MCF7 breast = system: MCF7 breast
MDA-MB-231 breast = system: MDA-MB-231 breast
MDA-MB-435 = system: MDA-MB-435
MOLT-4 leukemia = system: MOLT-4 leukemia
NCI-H226 lung = system: NCI-H226 lung
NCI-H23 lung = system: NCI-H23 lung
NCI-H460 lung = system: NCI-H460 lung
NCI-H522 lung = system: NCI-H522 lung
NCI/ADR-RES ovarian = system: NCI/ADR-RES ovarian
OVCAR-3 ovarian = system: OVCAR-3 ovarian
OVCAR-4 ovarian = system: OVCAR-4 ovarian
OVCAR-5 ovarian = system: OVCAR-5 ovarian
OVCAR-8 ovarian = system: OVCAR-8 ovarian
PC-3 prostate = system: PC-3 prostate
RPMI-8226 leukemia = system: RPMI-8226 leukemia
RXF 393 renal = system: RXF 393 renal
SF-268 CNS = system: SF-268 CNS
SF-295 CNS = system: SF-295 CNS
SF-539 CNS = system: SF-539 CNS
SK-MEL-2 melanoma = system: SK-MEL-2 melanoma
SK-MEL-28 melanoma = system: SK-MEL-28 melanoma
SK-MEL-5 melanoma = system: SK-MEL-5 melanoma
SK-OV-3 ovarian = system: SK-OV-3 ovarian
SN12C renal = system: SN12C renal
SNB-19 CNS = system: SNB-19 CNS
SNB-75 CNS = system: SNB-75 CNS
SR leukemia = system: SR leukemia
SW-620 colon = system: SW-620 colon
T-47D breast = system: T-47D breast
TK-10 renal = system: TK-10 renal
U251 CNS = system: U251 CNS
UACC-257 melanoma = system: UACC-257 melanoma
UACC-62 melanoma = system: UACC-62 melanoma
UO-31 renal = system: UO-31 renal

Cn1ccnc1C(=O)/C=C/c1ccc(C(=O)Nc2ccccc2F)cc1
GI50 (786-0 renal): 1.69 µM | TGI (786-0 renal): 3.32 µM | GI50 (A498 renal): 2.41 µM | TGI (A498 renal): 8.21 µM | GI50 (A549 NSCLC): 3.01 µM | TGI (A549 NSCLC): 13.2 µM | GI50 (ACHN renal): 2.01 µM | TGI (ACHN renal): 4.15 µM | GI50 (BT-549 breast): 1.77 µM | TGI (BT-549 breast): 4.21 µM | GI50 (CAKI-1 renal): 1.04 µM | TGI (CAKI-1 renal): 4.33 µM | GI50 (CCRF-CEM leukemia): 1.18 µM | TGI (CCRF-CEM leukemia): 7.54 µM | GI50 (COLO 205 colon): 2.74 µM | TGI (COLO 205 colon): 6.67 µM | GI50 (DU-145 prostate): 1.64 µM | TGI (DU-145 prostate): 3.32 µM | GI50 (EKVX NSCLC): 2.9 µM | TGI (EKVX NSCLC): 11.5 µM | GI50 (HCC-2998 colon): 2.34 µM | TGI (HCC-2998 colon): 4.67 µM | GI50 (HCT-116 colon): 0.862 µM | TGI (HCT-116 colon): 2.35 µM | GI50 (HCT-15 colon): 1.33 µM | TGI (HCT-15 colon): 4.06 µM | GI50 (HL-60(TB) leukemia): 1.6 µM | TGI (HL-60(TB) leukemia): 4.33 µM | GI50 (HOP-62 NSCLC): 4.27 µM | TGI (HOP-62 NSCLC): 17.1 µM | GI50 (HOP-92 NSCLC): 1.9 µM | TGI (HOP-92 NSCLC): 7.07 µM | GI50 (HS 578T breast): 3.02 µM | TGI (HS 578T breast): 15.4 µM | GI50 (HT29 colon): 2.49 µM | TGI (HT29 colon): 6.68 µM | GI50 (IGROV1 ovarian): 2.12 µM | TGI (IGROV1 ovarian): 5.05 µM | GI50 (K-562 leukemia): 0.372 µM | TGI (K-562 leukemia): > 100 µM | GI50 (KM12 colon): 1.89 µM | TGI (KM12 colon): 3.82 µM | GI50 (LOX IMVI melanoma): 0.636 µM | TGI (LOX IMVI melanoma): 2.24 µM | GI50 (M14 melanoma): 1.7 µM | TGI (M14 melanoma): 3.81 µM | GI50 (MALME-3M melanoma): 1.93 µM | TGI (MALME-3M melanoma): 4.58 µM | GI50 (MCF7 breast): 1.82 µM | TGI (MCF7 breast): 6.63 µM | GI50 (MDA-MB-231 breast): 3.24 µM | TGI (MDA-MB-231 breast): 10.5 µM | GI50 (MDA-MB-435): 2.09 µM | TGI (MDA-MB-435): 5.04 µM | GI50 (MOLT-4 leukemia): 2.38 µM | TGI (MOLT-4 leukemia): 6.41 µM | GI50 (NCI-H226 lung): 2.63 µM | TGI (NCI-H226 lung): 10.3 µM | GI50 (NCI-H23 lung): 2.85 µM | TGI (NCI-H23 lung): 9.43 µM | GI50 (NCI-H460 lung): 1.94 µM | TGI (NCI-H460 lung): 5.43 µM | GI50 (NCI-H522 lung): 2.66 µM | TGI (NCI-H522 lung): 8.76 µM | GI50 (NCI/ADR-RES ovarian): 3.29 µM | TGI (NCI/ADR-RES ovarian): 22.5 µM | GI50 (OVCAR-3 ovarian): 2 µM | TGI (OVCAR-3 ovarian): 4.57 µM | GI50 (OVCAR-4 ovarian): 2.76 µM | TGI (OVCAR-4 ovarian): 12.8 µM | GI50 (OVCAR-5 ovarian): 2.42 µM | TGI (OVCAR-5 ovarian): 6.42 µM | GI50 (OVCAR-8 ovarian): 3.68 µM | TGI (OVCAR-8 ovarian): 21.6 µM | GI50 (PC-3 prostate): 1.89 µM | TGI (PC-3 prostate): 4.47 µM | GI50 (RPMI-8226 leukemia): 0.567 µM | TGI (RPMI-8226 leukemia): 2.82 µM | GI50 (RXF 393 renal): 1.75 µM | TGI (RXF 393 renal): 3.63 µM | GI50 (SF-268 CNS): 2.46 µM | TGI (SF-268 CNS): 9.16 µM | GI50 (SF-295 CNS): 4.6 µM | TGI (SF-295 CNS): 16.3 µM | GI50 (SF-539 CNS): 1.75 µM | TGI (SF-539 CNS): 4.24 µM | GI50 (SK-MEL-2 melanoma): 6.25 µM | TGI (SK-MEL-2 melanoma): 28.1 µM | GI50 (SK-MEL-28 melanoma): 2.04 µM | TGI (SK-MEL-28 melanoma): 4.59 µM | GI50 (SK-MEL-5 melanoma): 2.14 µM | TGI (SK-MEL-5 melanoma): 4.56 µM | GI50 (SK-OV-3 ovarian): 6.53 µM | TGI (SK-OV-3 ovarian): 20.6 µM | GI50 (SN12C renal): 2.63 µM | TGI (SN12C renal): 9.56 µM | GI50 (SNB-19 CNS): 2.06 µM | TGI (SNB-19 CNS): 5.66 µM | GI50 (SNB-75 CNS): 1.36 µM | TGI (SNB-75 CNS): 8.03 µM | GI50 (SR leukemia): 0.304 µM | TGI (SR leukemia): 2.34 µM | GI50 (SW-620 colon): 1.76 µM | TGI (SW-620 colon): 6.29 µM | GI50 (T-47D breast): 2.9 µM | TGI (T-47D breast): 17.8 µM | GI50 (TK-10 renal): 3.84 µM | TGI (TK-10 renal): 15.9 µM | GI50 (U251 CNS): 1.3 µM | TGI (U251 CNS): 3.29 µM | GI50 (UACC-257 melanoma): 3.51 µM | TGI (UACC-257 melanoma): 14 µM | GI50 (UACC-62 melanoma): 1.98 µM | TGI (UACC-62 melanoma): 4.47 µM | GI50 (UO-31 renal): 1.38 µM | TGI (UO-31 renal): 2.67 µM
